One assay concerns K562. The assay is described as follows: CellTiter-Blue cell viability, K562. It counts as cell-based, human. To be noted: for IC50: Homo sapiens, K562, 72 h, read-out: IC50 against K562.
The subject of the next assay is KCL22. In words: CellTiter-Blue cell viability, KCL22. In kind it is cell-based, human. To be noted: for IC50: Homo sapiens, KCL-22, 72 h, read-out: IC50 against KCL22.
The test system of the next assay is KCL22-IR. In words: CellTiter-Blue cell viability, KCL22-IR. It counts as cell-based, human. To be noted: for IC50: Homo sapiens, 72 h, read-out: IC50 against KCL22-IR. For orientation: Resazurin is reduced to fluorescent resorufin, in cell work by metabolically active cells.
The next assay addresses MNK2 (Homo sapiens, UniProt Q9HBH9). The assay is described as follows: biochemical. To be noted: read-out: inhibition of MNK2.
For a further assay, the target named is T1, FLT3 (ITD) (Homo sapiens, UniProt P36888, ITD).
T1 sequence (P36888 564-993): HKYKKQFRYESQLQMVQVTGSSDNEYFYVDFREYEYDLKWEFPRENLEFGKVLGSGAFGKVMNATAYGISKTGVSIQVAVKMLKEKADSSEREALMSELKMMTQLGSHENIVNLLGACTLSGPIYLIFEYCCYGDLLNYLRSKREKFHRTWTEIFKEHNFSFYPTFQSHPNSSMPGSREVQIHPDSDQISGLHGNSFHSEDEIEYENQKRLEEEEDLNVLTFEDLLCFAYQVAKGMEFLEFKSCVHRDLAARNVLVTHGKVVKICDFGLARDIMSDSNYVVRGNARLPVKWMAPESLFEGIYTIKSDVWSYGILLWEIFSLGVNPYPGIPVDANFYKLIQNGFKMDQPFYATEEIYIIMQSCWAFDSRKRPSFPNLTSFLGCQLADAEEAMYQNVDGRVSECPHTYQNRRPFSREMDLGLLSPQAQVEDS
In words: Reaction Biology 33P-ATP kinase assay, FLT3. To be noted: read-out: inhibition against FLT3(ITD).

In another assay the target is ABL1 (T315I) (Homo sapiens, UniProt P00519, T315I). In words: Reaction Biology 33P-ATP kinase assay, ABL1. To be noted: read-out: inhibition against ABL1(T315I).
In another assay the test system is MOLM13-res. The assay is described as follows: CellTiter-Blue cell viability, MOLM13-res. To be noted: Homo sapiens, 72 h, read-out: IC50 against MOLM13-res. In kind it is cell-based.
A further assay deals with c-SRC (Homo sapiens, UniProt P12931). The assay is described as follows: Reaction Biology 33P-ATP kinase assay, c-SRC. To be noted: read-out: inhibition against c-Src.
The test system of the next assay is MOLM14-D835Y. In words: CellTiter-Blue cell viability, MOLM14-D835Y. It counts as cell-based. To be noted: Homo sapiens, 72 h, read-out: IC50 against MOLM14-D835Y.
For another assay, the system named is MV-4-11. The assay is described as follows: CellTiter-Blue cell viability, MV-4-11. To be noted: Homo sapiens, MV4-11, 72 h, read-out: IC50 against MV-4-11. It counts as cell-based.
For the next assay, the system named is MOLM14-F691L. In words: CellTiter-Blue cell viability, MOLM14-F691L. It counts as cell-based. To be noted: Homo sapiens, MOLM-14, 72 h, read-out: IC50 against MOLM14-F691L.
Another assay has as its system MOLM14. The assay is described as follows: CellTiter-Blue cell viability, MOLM14. In kind it is cell-based. To be noted: Homo sapiens, MOLM-14, 72 h, read-out: IC50 against MOLM14.
Another assay concerns LC2/Ad. In words: CellTiter-Blue cell viability, LC2/Ad. It counts as cell-based. To be noted: Homo sapiens, LC-2-ad, 72 h, read-out: IC50 against LC2/Ad.
For the next assay, the system named is H520. The assay is described as follows: CellTiter-Blue cell viability, H520. In kind it is cell-based. To be noted: Homo sapiens, NCI-H520, 72 h, read-out: IC50 against H520.
The target of the next assay is c-Kit (Homo sapiens, UniProt P10721). In words: Reaction Biology 33P-ATP kinase assay, c-Kit. In kind it is biochemical.
A further assay has as its target T2, FLT3 (D835Y) (Homo sapiens, UniProt P36888, D835Y).
T2 sequence (P36888 27-993 D835Y): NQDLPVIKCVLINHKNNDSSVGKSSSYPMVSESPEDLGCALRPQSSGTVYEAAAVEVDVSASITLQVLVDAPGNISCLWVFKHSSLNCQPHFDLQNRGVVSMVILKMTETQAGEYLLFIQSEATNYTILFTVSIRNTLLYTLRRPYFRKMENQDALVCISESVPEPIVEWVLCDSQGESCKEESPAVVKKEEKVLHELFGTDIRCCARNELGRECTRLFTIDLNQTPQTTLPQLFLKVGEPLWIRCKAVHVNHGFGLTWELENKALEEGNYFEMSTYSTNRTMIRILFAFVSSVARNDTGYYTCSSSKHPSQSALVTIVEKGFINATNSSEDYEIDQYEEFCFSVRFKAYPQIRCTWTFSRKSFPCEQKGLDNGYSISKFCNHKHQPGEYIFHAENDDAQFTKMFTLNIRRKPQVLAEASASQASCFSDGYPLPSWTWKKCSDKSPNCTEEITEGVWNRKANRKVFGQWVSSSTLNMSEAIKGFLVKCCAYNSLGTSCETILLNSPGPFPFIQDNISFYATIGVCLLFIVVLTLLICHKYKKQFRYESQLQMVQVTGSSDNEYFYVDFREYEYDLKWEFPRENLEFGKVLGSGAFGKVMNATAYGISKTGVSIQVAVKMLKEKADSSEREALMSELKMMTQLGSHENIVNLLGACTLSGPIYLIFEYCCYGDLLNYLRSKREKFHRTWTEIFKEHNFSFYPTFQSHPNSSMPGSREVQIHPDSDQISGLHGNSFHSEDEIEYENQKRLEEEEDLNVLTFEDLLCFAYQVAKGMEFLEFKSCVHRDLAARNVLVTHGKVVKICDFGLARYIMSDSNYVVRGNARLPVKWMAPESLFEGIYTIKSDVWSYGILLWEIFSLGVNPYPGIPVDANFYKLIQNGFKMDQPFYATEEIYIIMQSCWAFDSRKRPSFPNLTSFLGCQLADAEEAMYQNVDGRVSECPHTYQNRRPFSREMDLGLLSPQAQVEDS
In words: Reaction Biology 33P-ATP kinase assay, FLT3. To be noted: read-out: inhibition against FLT3(D835Y).

This note sets out measurements from article PMC7033671 (ACS Omega, 2020).

Chain of MNK2 (Q9HBH9 whole entry): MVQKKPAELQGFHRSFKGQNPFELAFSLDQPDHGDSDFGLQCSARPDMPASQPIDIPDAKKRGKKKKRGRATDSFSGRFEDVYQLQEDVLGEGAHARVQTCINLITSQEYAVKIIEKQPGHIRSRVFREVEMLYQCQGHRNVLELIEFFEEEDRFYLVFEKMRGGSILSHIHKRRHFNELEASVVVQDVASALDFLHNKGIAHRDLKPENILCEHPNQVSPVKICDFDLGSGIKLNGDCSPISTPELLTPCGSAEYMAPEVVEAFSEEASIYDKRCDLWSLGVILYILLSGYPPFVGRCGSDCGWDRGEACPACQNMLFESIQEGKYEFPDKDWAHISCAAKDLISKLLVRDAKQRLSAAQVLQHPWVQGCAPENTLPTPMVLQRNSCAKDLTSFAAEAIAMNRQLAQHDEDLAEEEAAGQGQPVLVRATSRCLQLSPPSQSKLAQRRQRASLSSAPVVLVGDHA
Chain of c-SRC (P12931 whole entry): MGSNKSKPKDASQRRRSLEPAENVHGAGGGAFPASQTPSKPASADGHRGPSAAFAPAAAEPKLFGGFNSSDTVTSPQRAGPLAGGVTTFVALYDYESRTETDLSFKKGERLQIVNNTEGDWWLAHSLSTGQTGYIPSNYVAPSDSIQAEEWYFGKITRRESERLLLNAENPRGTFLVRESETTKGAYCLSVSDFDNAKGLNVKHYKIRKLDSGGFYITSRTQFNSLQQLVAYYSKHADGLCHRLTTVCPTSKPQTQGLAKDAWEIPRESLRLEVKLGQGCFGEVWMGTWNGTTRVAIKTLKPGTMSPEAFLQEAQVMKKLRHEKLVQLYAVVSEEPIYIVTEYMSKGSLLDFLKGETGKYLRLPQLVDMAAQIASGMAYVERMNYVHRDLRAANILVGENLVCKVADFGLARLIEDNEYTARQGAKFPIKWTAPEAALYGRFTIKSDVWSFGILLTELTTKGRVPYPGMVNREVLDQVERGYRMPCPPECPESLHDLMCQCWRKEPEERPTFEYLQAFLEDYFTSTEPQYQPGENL
Chain of c-Kit (P10721 26-976): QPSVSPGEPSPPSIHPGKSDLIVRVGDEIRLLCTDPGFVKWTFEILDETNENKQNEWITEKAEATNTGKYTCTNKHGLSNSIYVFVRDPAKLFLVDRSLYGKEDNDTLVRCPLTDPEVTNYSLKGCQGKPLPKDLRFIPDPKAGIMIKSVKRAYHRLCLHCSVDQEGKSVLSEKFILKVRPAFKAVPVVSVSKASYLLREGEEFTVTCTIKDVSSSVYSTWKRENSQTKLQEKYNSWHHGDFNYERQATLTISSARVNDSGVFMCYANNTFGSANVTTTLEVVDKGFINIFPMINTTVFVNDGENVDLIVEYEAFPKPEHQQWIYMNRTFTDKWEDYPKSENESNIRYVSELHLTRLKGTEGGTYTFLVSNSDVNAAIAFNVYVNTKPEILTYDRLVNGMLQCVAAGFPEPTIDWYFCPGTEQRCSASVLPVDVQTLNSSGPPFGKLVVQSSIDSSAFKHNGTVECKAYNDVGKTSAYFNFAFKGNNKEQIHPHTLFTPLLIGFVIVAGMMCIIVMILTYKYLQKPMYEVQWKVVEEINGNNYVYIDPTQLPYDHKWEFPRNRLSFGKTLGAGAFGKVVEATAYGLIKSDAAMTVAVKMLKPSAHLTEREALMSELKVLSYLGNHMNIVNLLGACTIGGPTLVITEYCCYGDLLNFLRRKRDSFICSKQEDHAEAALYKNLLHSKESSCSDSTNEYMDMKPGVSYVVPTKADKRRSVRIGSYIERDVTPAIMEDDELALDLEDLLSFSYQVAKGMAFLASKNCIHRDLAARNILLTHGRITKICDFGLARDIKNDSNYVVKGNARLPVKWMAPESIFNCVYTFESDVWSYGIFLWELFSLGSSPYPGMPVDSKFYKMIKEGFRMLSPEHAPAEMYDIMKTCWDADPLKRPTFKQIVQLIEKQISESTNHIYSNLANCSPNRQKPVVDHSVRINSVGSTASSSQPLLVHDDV

Consider `CN1CCN(Cc2ccc(NC(=O)c3cccc(C#Cc4cnc5cccnn45)c3)cc2C(F)(F)F)CC1` [HSL331, 3-(Imidazo[1,2-b]pyridazin-3-ylethynyl)-N-(4-((4-methylpiperazin-1-yl)methyl)-3-(trifluoromethyl)phenyl)benzamide], for which the results for the IC50 in the assay on K562, with KCL22 and with KCL22-IR were 0.26 ± 0.002 nM, 0.63 ± 0.002 nM and 2.86 ± 0.04 nM, respectively.
In the case of `CN1CCN(Cc2ccc(NC(=O)c3cncc(C#Cc4cnc5ccnn5c4)c3)cc2C(F)(F)F)CC1` [HSL412, N-(4-((4-Methylpiperazin-1-yl)methyl)-3-(trifluoromethyl)phenyl)-5-(pyrazolo[1,5-a]pyrimidin-6-ylethynyl)nicotinamide], the IC50 in the assay on K562 is 28.1 ± 0.6 nM; in the assay with KCL22, 28.1 ± 0.37 nM; in the assay on KCL22-IR, greater than 100 nM.
By inhibition is commonly meant the percentage by which the read-out fell short of the control. For `CN1CCN(Cc2ccc(NC(=O)c3cncc(C#Cc4cnc5ccccn45)c3)cc2C(F)(F)F)CC1` [HSL381, 5-(Imidazo[1,2-a]pyridin-3-ylethynyl)-N-(4-((4-methylpiperazin-1-yl)methyl)-3-(trifluoromethyl)phenyl)nicotinamide], the values for the inhibition at 0.123 µM on MNK2 and on ABL1 (T315I) were 84% and 73%, respectively. For the same molecule, the IC50 was 0.57 ± 0.003 nM in the assay on K562, 0.89 ± 0.005 nM in the assay on KCL22 and 4.24 ± 0.05 nM in the assay on KCL22-IR. For the same molecule, on FLT3 (ITD), the inhibition at 0.004 µM was found to be 91%.
For `CN1CCN(Cc2ccc(NC(=O)c3cncc(C#Cc4cnc5ncccn45)c3)cc2C(F)(F)F)CC1` [HSL382, 5-(Imidazo[1,2-a]pyrimidin-3-ylethynyl)-N-(4-((4-methylpiperazin-1-yl)methyl)-3-(trifluoromethyl)phenyl)nicotinamide], the “IC50 against K562” value in the assay with K562 (CML cell line (ABL1), 72 h treatment) was “inactive”. Further, in the assay with KCL22 (CML cell line, 72 h treatment), the “IC50 against KCL22” value was “inactive”. In addition, the IC50 with KCL22 and in the assay on KCL22-IR was greater than 100 nM each time. Moreover, the “IC50 against KCL22-IR” value in the assay on KCL22-IR (imatinib-resistant CML line, 72 h treatment) is “inactive”.
For the molecule `Cc1ccc(C(=O)Nc2ccc(CN3CCN(C)CC3)c(C(F)(F)F)c2)cc1C#Cc1cnc2cccnn12` [ponatinib, reference compound], the IC50 in the assay on MOLM13-res was 24.1 nM; with MOLM14-D835Y, 52.6 nM; with MV-4-11 it was 0.09 nM; in the assay on MOLM14-F691L, 6.8 nM; with K562, 0.6 ± 0.002 nM; with MOLM14, 0.45 nM. Further, the IC50 was 0.14 ± 0.003 nM with KCL22, 35.1 nM in the assay on LC2/Ad, 0.66 ± 0.005 nM in the assay on KCL22-IR and 128 nM with H520. Besides, on c-SRC, the inhibition at 0.111 µM stood at 98%. Also, on MNK2, the inhibition at 0.123 µM was 32%. Further, the inhibition at 0.004 µM at FLT3 (ITD) was less than 40%.
As to `CN1CCN(Cc2ccc(C(=O)Nc3cncc(C#Cc4cnc5cccnn45)c3)cc2C(F)(F)F)CC1` [HSL338, N-(5-(Imidazo[1,2-b]pyridazin-3-ylethynyl)pyridin-3-yl)-4-((4-methylpiperazin-1-yl)methyl)-3-(trifluoromethyl)benzamide], the results for the IC50 in the assay with K562, in the assay with KCL22 and with KCL22-IR were 0.45 ± 0.002 nM, 1.4 ± 0.02 nM and 4.24 ± 0.05 nM, respectively. The inhibition at 0.004 µM at FLT3 (ITD) was 84%.
As for `CN1CCN(Cc2ccc(NC(=O)c3cncc(C#Cc4cnc5cnccn45)c3)cc2C(F)(F)F)CC1` [HSL385, 5-(Imidazo[1,2-a]pyrazin-3-ylethynyl)-N-(4-((4-methylpiperazin-1-yl)methyl)-3-(trifluoromethyl)phenyl)nicotinamide], the inhibition at 0.123 µM on MNK2 came out at 72%. Also, the IC50 in the assay on K562 amounted to 0.94 ± 0.002 nM; in the assay with KCL22 it was 2.62 ± 0.06 nM; in the assay on KCL22-IR it was 17.2 ± 0.86 nM.
Consider `CN1CCN(Cc2ccc(NC(=O)c3cncc(C#Cc4cncc5nccn45)c3)cc2C(F)(F)F)CC1` [HSL407, 5-(Imidazo[1,2-a]pyrazin-5-ylethynyl)-N-(4-((4-methylpiperazin-1-yl)methyl)-3-(trifluoromethyl)phenyl)nicotinamide], for which the figures for the IC50 in the assay on K562, in the assay with KCL22 and with KCL22-IR were 1.83 ± 0.02 nM, 2.93 ± 0.04 nM and 49.7 ± 2.5 nM, respectively.
Regarding `Cc1ncc(C(=O)Nc2ccc(CN3CCN(C)CC3)c(C(F)(F)F)c2)cc1C#Cc1cnc2cccnn12` [HSL420, 5-(Imidazo[1,2-b]pyridazin-3-ylethynyl)-6-methyl-N-(4-((4-methylpiperazin-1-yl)methyl)-3-(trifluoromethyl)phenyl)nicotinamide], on c-SRC, the inhibition at 0.111 µM amounted to 32%. The figures for the IC50 in the assay on K562, in the assay on KCL22 and with KCL22-IR were 0.06 ± 0.002 nM, 0.06 ± 0.002 nM and 0.46 ± 0.01 nM, respectively. Also, on ABL1 (T315I), the inhibition at 0.123 µM stood at 83%.
Regarding `CN1CCN(Cc2ccc(NC(=O)c3cncc(C#Cc4cnc5cccnn45)c3)cc2C(F)(F)F)CC1` [HSN748, 5-(Imidazo[1,2-b]pyridazin-3-ylethynyl)-N-(4-((4-methylpiperazin-1-yl)methyl)-3-(trifluoromethyl)phenyl)nicotinamide], the inhibition at 0.111 µM at c-SRC was less than 10%; on FLT3 (D835Y), 87%. The inhibition at 0.123 µM on MNK2 came to 85%. Also, the results for the IC50 on c-Kit and with MOLM14 were 96 ± 4.21 nM and 0.25 nM, respectively. At FLT3 (ITD), the inhibition at 0.004 µM is 86%.
